Reference: publication PMC11449769, “Structure-based virtual screening towards the discovery of novel thrombin inhibitors with Anti-HCC activities” (Frontiers in Chemistry, 2024)
Entries after “also recorded” stand apart in the source; their conditions may differ. Where a name gives a salt, the structure may show the parent alone. Read-outs that look alike come from different tables or passages of the source.

Columns and labels:
[1] = tested on: platelets; test: Thrombin-induced platelet aggregation in vitro; assay type: cell-based, rats; details: drugs 3 mg/mL; thrombin 0.2 U/mL
Procedure: Blood was collected from rats and centrifuged for 10mins to obtain platelet-rich plasma, which was centrifuged again to collected platelets. The platelets were resus-pended and diluted to a concentration of 5 × 10^5/mL. PRP ([…]), and thrombin ([…]) were added to the platelet suspension in each group and incubated at 37°C. After incubation for 120 s, the reaction solution was well-mixed, and the same amount of thrombin ([…]) was added to a final concentration of 0.2 U/mL.

[2] = tested on: Hep3B, HepG2, HCCLM3 and HUh7 cells; test: Thrombin-induced accelerated proliferation of HCC cells (MTS); assay type: cell-based; details: 0.5 μM drug, 0.5 U/mL thrombin; for thrombin-induced accelerated proliferation of tumor cells: 12 and 36 h, 4 liver cancer cell lines
Procedure: Cell lines Hep3B, HepG2, HCCLM3 and HUh7 were purchased from Shanghai Biolaf Biotechnology Co., Ltd., and certified by short tandem repeat profiling and mycoplasma and cell vitality testing. The proliferation rate was determined using a cell proliferation assay kit (TOPSCIENCE, C0005). Briefly, cells were seeded in 96-well plates at a concentration of 10,000 cells/well. MTS was added and incubated at 37°C for 2 h. The absorbance was measured at a wavelength of 490 nm. Three independent experiments were per-formed for each assay.

[3] = target: T1, thrombin (Homo sapiens, UniProt P00734); test: In vitro thrombin inhibition assay (fluorogenic substrate Ac-FVR-AMC); assay type: biochemical
T1 construct: a light chain A composed of 39 amino acid residues and a heavy chain B composed of 259 amino acid residues; purchased China National Institute for the Control of Pharmaceutical and Biological Products
Procedure: Lyophilized thrombin, which was purchased from China National Institute for the Control of Pharmaceutical and Biological Products, was reconstituted (5.4 μg/mL), added to the diluted solution, and pre-incubated at 37°C for 10 min.
sample: initial velocity of compound group; VDMSO: initial velocity of blank group, treated with DMSO alone; Inhibition rate (%) = 100/[1 + 10 (LogIC50−X)h], h represents Hill coefficient.

[4] = target: T1, thrombin; test: Thrombin time; details: drugs 3 mg/mL, thrombin 0.2 U/mL
[5] = tested on: HepG2 tumor; test: HepG2 tumor model in BALB/c nude mice; details: 28 days
Procedure: 20,000 HepG2 cells were injected into the fat pad of each female Balb/c mouse. The long and short diameters of the tumor were measured using a caliper. Medication was started when a rumor size of 100 mm^3 was reached. Sorafenib, ZXX-4, and sorafenib combined with ZXX-4 were administered for 28 days. The body weight and tumor size of the mice were measured twice a week. The mice were sacrificed after 28 days of treatment, the tumor weight was measured, and the number of metastases was counted by Indian ink staining of the lung.

[6] = tested on: BALB/c nude mice; test: Single oral dose tolerance in BALB/c nude mice; assay type: in vivo; details: single oral administration of 500 mg/kg, 24 h
[7] = thrombin 5.4 μg/mL, substrate 5 μM, 37°C, read-out: IC50

Compound | IC50 [3, 7] [nM] | thrombin time (in words) [4] | platelet aggregation rate [1] | thrombin-induced accelerated proliferation of tumor cells [2] | other results
CCCCCCOC(=O)N=C(N)c1ccc(NCc2nc3cc(C(=O)N(CCC(=O)OCC)c4ccccn4)ccc3n2C)cc1 [dabigatran etexilate, reference compound] |  |  | less than 50% | reduced to different degrees | 
CNC(=O)c1cc(Oc2ccc(NC(=O)Nc3ccc(Cl)c(C(F)(F)F)c3)cc2)ccn1 [sorafenib, reference compound] |  |  |  |  | tumor weight ([5]; ZXX-4 50 mg/kg/day and/or sorafenib 30 mg/kg/day, oral): slightly better than that of ZXX-4
Saralasin acetate [ZXX-1] | 175 ± 18 |  |  |  | 
[Sarl, Ile8]-Angiotensin II acetate [ZXX-4] | 23 ± 5 | significantly prolonged | less than 50% | reduced to different degrees | platelet aggregation rate compared with dabigatran etexilate [1]: not significant; relative activity on thrombin-induced proliferation [2]: highest activity, which was comparable to dabigatran etexilate; HepG2 tumor growth ([5]; 50 mg/kg/day oral): inhibited HepG2 tumor growth; number of lung metastatic nodules ([5]; ZXX-4 50 mg/kg/day and/or sorafenib 30 mg/kg/day, oral, Indian ink staining): com-parable to that of sorafenib; also recorded: reduced tumor metastasis; effect on the efficacy of sorafenib ([5]; ZXX-4 50 mg/kg/day with sorafenib 30 mg/kg/day, oral): enhanced; thrombin time ([4]; 180 s = upper limit of detection): 180 s; survival after single dose [6]: survived
C=C(c1ccccc1OCc1cccc(Cl)c1)n1ccnc1 [ZXX-11, CROCONAZOLE] |  | significantly prolonged | less than 50% | reduced to different degrees | IC50 [3]: 72 ± 20 nM

Now from value to compound, other results behind:

IC50 [3, 7] [nM] | thrombin time (in words) [4] | Compound | platelet aggregation rate [1] | thrombin-induced accelerated proliferation of tumor cells [2] | other results
68 ± 12 | significantly prolonged | LSKL [ZXX-2] | less than 50% | reduced to different degrees | 
98 ± 15 |  | NCCOc1cc(C(=O)Nc2cc(OCCN)c3ccccc3n2)nc(C(=O)Nc2cc(OCCN)c3ccccc3n2)c1 [ZXX-20, Pyridostatin Trihydrochloride] |  |  | 
45 ± 10 | significantly prolonged | Fc1ccc(Cl)c(COc2cccc3onc(Nc4cccnc4)c23)c1 [ZXX-5, SMS2-IN-2] | less than 50% | reduced to different degrees | 
52 ± 9 | significantly prolonged | C-Reactive Protein (CRP) 201–206 acetate [ZXX-17] | less than 50% | reduced to different degrees | 
